Among the targets are PIK3CB (Human) (UniProt P42338); PIK3CD (Human) (UniProt O00329); PIK3CG (human) (UniProt P48736).
Common to all, as to assay: Enzyme Assay

PIK3CB (Human), sequence (P42338 whole entry, looked up): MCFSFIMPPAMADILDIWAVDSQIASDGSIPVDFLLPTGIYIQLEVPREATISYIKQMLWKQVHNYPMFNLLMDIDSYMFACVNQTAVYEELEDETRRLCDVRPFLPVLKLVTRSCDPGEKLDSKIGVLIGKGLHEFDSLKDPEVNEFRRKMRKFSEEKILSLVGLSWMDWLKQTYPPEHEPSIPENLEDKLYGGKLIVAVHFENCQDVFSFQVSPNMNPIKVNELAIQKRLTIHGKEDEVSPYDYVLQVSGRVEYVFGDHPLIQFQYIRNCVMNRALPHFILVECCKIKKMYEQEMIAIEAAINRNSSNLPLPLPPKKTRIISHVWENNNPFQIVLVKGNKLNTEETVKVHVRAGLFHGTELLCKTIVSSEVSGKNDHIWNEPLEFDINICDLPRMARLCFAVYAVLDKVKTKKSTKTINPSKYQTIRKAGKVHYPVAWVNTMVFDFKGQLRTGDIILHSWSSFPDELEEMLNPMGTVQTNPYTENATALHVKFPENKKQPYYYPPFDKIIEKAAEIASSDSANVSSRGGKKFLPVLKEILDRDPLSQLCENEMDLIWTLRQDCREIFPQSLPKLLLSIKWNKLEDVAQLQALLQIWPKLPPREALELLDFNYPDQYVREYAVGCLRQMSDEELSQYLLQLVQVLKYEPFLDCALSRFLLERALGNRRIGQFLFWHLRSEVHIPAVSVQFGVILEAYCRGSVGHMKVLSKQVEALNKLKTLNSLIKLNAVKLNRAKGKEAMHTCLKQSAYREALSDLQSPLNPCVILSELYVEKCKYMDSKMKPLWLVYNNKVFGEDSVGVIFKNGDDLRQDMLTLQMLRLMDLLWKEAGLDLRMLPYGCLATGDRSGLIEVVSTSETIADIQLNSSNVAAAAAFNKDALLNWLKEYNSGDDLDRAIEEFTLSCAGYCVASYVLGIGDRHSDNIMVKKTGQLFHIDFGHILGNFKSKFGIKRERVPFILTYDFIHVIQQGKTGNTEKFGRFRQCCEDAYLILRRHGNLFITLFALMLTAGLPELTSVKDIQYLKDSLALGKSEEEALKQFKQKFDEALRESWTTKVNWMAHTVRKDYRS
PIK3CG (human), sequence (P48736 whole entry, looked up): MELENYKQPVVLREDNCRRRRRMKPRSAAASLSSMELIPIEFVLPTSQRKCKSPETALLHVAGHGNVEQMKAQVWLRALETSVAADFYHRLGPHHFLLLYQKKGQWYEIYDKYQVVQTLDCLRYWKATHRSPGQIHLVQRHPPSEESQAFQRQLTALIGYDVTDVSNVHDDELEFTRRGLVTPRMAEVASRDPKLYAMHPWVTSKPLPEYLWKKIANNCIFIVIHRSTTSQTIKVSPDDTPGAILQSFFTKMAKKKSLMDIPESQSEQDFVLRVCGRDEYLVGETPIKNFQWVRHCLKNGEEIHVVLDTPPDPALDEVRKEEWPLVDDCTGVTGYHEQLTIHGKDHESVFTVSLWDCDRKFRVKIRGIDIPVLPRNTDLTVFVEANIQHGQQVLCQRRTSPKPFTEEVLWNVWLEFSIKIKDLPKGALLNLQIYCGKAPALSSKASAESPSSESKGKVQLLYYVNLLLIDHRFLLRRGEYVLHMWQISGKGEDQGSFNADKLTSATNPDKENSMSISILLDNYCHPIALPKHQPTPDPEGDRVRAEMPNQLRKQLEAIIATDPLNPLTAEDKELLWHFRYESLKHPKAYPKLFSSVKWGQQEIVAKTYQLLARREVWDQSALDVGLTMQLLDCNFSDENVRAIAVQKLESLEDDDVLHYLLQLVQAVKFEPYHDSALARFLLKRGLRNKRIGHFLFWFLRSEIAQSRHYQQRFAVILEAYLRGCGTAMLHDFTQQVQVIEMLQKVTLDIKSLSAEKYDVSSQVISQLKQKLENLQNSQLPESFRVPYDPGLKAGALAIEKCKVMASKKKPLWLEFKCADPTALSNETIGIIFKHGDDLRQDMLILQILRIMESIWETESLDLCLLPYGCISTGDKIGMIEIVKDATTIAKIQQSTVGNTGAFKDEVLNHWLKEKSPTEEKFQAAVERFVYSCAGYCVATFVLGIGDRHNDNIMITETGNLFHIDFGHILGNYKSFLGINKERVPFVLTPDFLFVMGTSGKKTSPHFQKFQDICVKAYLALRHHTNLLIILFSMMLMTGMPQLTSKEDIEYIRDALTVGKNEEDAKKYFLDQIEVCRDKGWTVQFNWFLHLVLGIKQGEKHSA
PIK3CD (Human), sequence (O00329 whole entry, looked up): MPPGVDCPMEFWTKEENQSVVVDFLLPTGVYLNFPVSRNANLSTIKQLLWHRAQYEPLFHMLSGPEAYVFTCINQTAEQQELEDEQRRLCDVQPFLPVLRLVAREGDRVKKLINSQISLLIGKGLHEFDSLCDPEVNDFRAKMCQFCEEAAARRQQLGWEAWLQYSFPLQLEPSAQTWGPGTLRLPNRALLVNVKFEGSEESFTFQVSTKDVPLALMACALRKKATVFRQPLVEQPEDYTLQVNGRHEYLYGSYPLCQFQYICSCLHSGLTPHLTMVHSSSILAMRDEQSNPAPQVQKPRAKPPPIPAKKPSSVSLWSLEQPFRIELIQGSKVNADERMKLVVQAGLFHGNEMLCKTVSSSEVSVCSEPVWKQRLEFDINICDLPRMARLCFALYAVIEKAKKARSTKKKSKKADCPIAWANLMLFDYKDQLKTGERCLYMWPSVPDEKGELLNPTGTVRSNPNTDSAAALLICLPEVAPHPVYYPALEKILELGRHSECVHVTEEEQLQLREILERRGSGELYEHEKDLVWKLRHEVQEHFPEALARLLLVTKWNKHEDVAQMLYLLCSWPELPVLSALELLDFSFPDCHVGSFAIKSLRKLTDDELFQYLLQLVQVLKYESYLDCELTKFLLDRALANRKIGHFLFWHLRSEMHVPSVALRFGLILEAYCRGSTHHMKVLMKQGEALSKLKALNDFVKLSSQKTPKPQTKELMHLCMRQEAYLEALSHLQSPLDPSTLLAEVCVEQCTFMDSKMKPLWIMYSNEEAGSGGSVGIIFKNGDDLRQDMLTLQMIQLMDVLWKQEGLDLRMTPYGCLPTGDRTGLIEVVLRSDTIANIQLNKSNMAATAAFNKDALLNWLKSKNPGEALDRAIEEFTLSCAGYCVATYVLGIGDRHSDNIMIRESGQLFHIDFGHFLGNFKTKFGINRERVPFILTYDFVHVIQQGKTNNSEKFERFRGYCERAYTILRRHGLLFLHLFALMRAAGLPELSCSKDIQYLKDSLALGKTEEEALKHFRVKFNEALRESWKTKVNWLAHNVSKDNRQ

As to `C[C@H](Nc1nc(N)nc(N)c1C#N)c1nc2cccc(Cl)c2c(=O)n1C[C@H]1CCCNC1`, the 50% inhibitory concentration (IC50) is 0.088 µM against PIK3CB (Human), 0.002 µM against PIK3CD (Human) and 3.2 µM at PIK3CG (human). `Nc1nc(N)c(Cl)c(N[C@H](c2nc3c(Cl)ccc(Cl)c3c(=O)n2[C@H]2C[C@@H](O)C2)C2CC2)n1` returned an IC50 on PIK3CG (human) of at least 10 µM.

The compound `C[C@H](Nc1nc(N)nc(N)c1Cl)c1nc2cccc(Cl)c2c(=O)n1CCCN` registered an IC50 at PIK3CG (human) of at least 10 µM. Compound `CC[C@H](Nc1ncnc(N)c1C#N)c1nc2cccc(Cl)c2c(=O)n1CCCN` showed an IC50 at PIK3CG (human) of at least 10 µM. At PIK3CG (human), `C[C@H](Nc1ncnc(N)c1C#N)c1nc2cccc(Cl)c2c(=O)n1CCCN(C)C` registered an IC50 of at least 10 µM. Still for that read-out and setting: for `C[C@H](Nc1ncnc(N)c1C#N)c1nc2cccc(Cl)c2c(=O)n1CCCNCc1ccccc1` the value was at least 10 µM; for `CC(CCN)n1c([C@H](C)Nc2ncnc(N)c2C#N)nc2cccc(Cl)c2c1=O` (stereo not given in full), at least 10 µM; for `C[C@H](Nc1ncnc2scnc12)c1nc2cccc(Cl)c2c(=O)n1CCC(C)(C)N`, at least 10 µM.

`C[C@H](Nc1ncnc(N)c1C#N)c1nc2cccc(Cl)c2c(=O)n1CC1CCNCC1` yielded an IC50 against PIK3CG (human) of at least 10 µM. Still for that read-out and setting: for `Cc1cccc2nc([C@H](C)Nc3ncnc(N)c3C#N)n(CCCN)c(=O)c12` the value was at least 10 µM. Compound `CNCCCn1c([C@H](C)Nc2ncnc(N)c2C#N)nc2cccc(Cl)c2c1=O` gave an IC50 at PIK3CG (human) of at least 10 µM. The same measure, in the same setting: the value for `C[C@H](Nc1ncnc(N)c1C#N)c1nc2cccc(Cl)c2c(=O)n1N(C)CCN` was at least 10 µM. Still for that read-out and setting: for `C[C@H](Nc1ncnc(N)c1C#N)c1nc2cccc(Cl)c2c(=O)n1[C@H]1C[C@H](N)C1` the value was at least 10 µM. As for `C[C@H](Nc1nc(N)nc(N)c1C#N)c1nc2cccc(Cl)c2c(=O)n1N(CCN)Cc1ccccc1`, the IC50 against PIK3CG (human) is at least 10 µM.

For `CC(C)C[C@H](Nc1ncnc(N)c1C#N)c1nc2cccc(Cl)c2c(=O)n1CCCN`, the IC50 against PIK3CG (human) is at least 10 µM. The same measure, in the same setting: the value for `N#Cc1c(N)ncnc1N[C@H](c1nc2cccc(Cl)c2c(=O)n1CCCN)C1CC1` was at least 10 µM.

At PIK3CG (human), `C[C@H](Nc1ncnc(N)c1C#N)c1nc2cccc(Cl)c2c(=O)n1CC1CCCNC1` (stereo not given in full) registered an IC50 of at least 10 µM. Same read-out and setting: the value for `C[C@H](Nc1nc(N)nc(N)c1C#N)c1nc2cccc(Cl)c2c(=O)n1CCN1CCCC1` was at least 10 µM; that for `CC(CN)n1c([C@H](C)Nc2ncnc(N)c2C#N)nc2cccc(Cl)c2c1=O` (stereo not given in full) was at least 10 µM; that for `C[C@H](Nc1ncnn2ccnc12)c1nc2cccc(Cl)c2c(=O)n1CCCN` was at least 10 µM. Consider `N#Cc1c(N)nc(N)nc1N[C@@H](c1ccccc1)c1nc2cccc(Cl)c2c(=O)n1CCCN`, for which the IC50 on PIK3CG (human) is at least 10 µM. Same read-out and setting: the value for `C[C@H](Nc1ncnc(N)c1C#N)c1nc2cccc(Cl)c2c(=O)n1CC1CCCN1` (stereo not given in full) was at least 10 µM; that for `C[C@H](Nc1ncnc(N)c1C#N)c1nc2cccc(Cl)c2c(=O)n1CCN` was at least 10 µM; that for `CC(CN)Cn1c([C@H](C)Nc2ncnc(N)c2C#N)nc2cccc(Cl)c2c1=O` (stereo not given in full) was at least 10 µM. `C[C@H](Nc1ncnc(N)c1Cl)c1nc2cccc(Cl)c2c(=O)n1CCCN` returned an IC50 against PIK3CG (human) of at least 10 µM. Same read-out and setting: the value for `C[C@H](Nc1ncnc(N)c1C#N)c1nc2cccc(Cl)c2c(=O)n1N(CCN)Cc1ccccc1` was at least 10 µM; that for `NCCCn1c([C@@H](Nc2ncnn3ccnc23)C2CC2)nc2cccc(Cl)c2c1=O` was at least 10 µM; that for `COCCCn1c([C@H](C)Nc2ncnc(N)c2C#N)nc2c(Cl)ccc(Cl)c2c1=O` was over 10 µM. The same measure, in the same setting: for `C[C@H](Nc1ncnc(N)c1C#N)c1nc2cccc(Cl)c2c(=O)n1CCC(C)(C)N` the value was at least 10 µM; for `C[C@H](Nc1ncnc(N)c1C#N)c1nc2cccc(Cl)c2c(=O)n1CCCN1CCN(C)CC1`, at least 10 µM. The same measure, in the same setting: the value for `C[C@H](Nc1ncnc(N)c1C#N)c1nc2cccc(Cl)c2c(=O)n1C[C@@H](O)CO` was at least 10 µM.

`Cc1ncnc(N[C@@H](C)c2nc3cccc(Cl)c3c(=O)n2CCCN)c1C#N` displayed an IC50 against PIK3CG (human) of at least 10 µM. Turning to `COCCCn1c([C@H](C)Nc2ncnc(N)c2C#N)nc2c(F)ccc(F)c2c1=O`, the IC50 on PIK3CG (human) was at least 10 µM.

For `NCCCn1c([C@@H](Nc2nc(N)nc(N)c2Cl)C2CC2)nc2cccc(Cl)c2c1=O`, the IC50 against PIK3CG (human) was at least 10 µM. As to `C[C@H](Nc1ncnc(N)c1C#N)c1nc2cccc(Cl)c2c(=O)n1CCN1CCCC1`, the half-inhibitory concentration (IC50) against PIK3CG (human) is at least 10 µM. The same measure, in the same setting: for `C[C@H](Nc1ncnc(N)c1C#N)c1nc2cccc(Cl)c2c(=O)n1CCCCN` the value was at least 10 µM. The same measure, in the same setting: for `C[C@H](NC(=O)c1nccnc1N)c1nc2cccc(Cl)c2c(=O)n1CCCN` the value was at least 10 µM.

`C[C@H](Nc1ncnc(N)c1C#N)c1nc2cccc(Cl)c2c(=O)n1CC1CCCCN1` (stereo not given in full): the IC50 against PIK3CG (human) was at least 10 µM. Same read-out and setting: the value for `C[C@H](Nc1ncnc2[nH]cnc12)c1nc2cccc(Cl)c2c(=O)n1CCCN1CCOCC1` was at least 10 µM.

In the case of `C[C@H](Nc1ncnc(N)c1C#N)c1nc2cccc(Cl)c2c(=O)n1CCN1CCN(C)CC1`, the IC50 against PIK3CB (Human) was 0.34 µM; against PIK3CD (Human), 0.011 µM; on PIK3CG (human), at least 10 µM. `C[C@H](Nc1ncnc(N)c1C#N)c1nc2cccc(Cl)c2c(=O)n1CC1CCNC1` (stereo not given in full) gave an IC50 at PIK3CG (human) of at least 10 µM.

Consider `C[C@H](Nc1nc(N)nc(N)c1C#N)c1nc2cccc(Cl)c2c(=O)n1C[C@@H]1CCCNC1`, for which the IC50 against PIK3CB (Human) stood at 0.079 µM; against PIK3CD (Human), 0.003 µM; at PIK3CG (human), 1.3 µM. On to `C[C@H](Nc1ncnc(N)c1C#N)c1nc2cccc(Cl)c2c(=O)n1CC1CNCCO1` (stereo not given in full), for which the IC50 against PIK3CG (human) is at least 10 µM.

As for `C[C@H](Nc1ncnc(N)c1C#N)c1nc2cccc(Cl)c2c(=O)n1CCCN1CCCCC1`, the IC50 at PIK3CG (human) was at least 10 µM.

One may read the IC50 as the concentration that inhibits the measured activity by half. Read a low IC50 as greater potency in that assay.

These data come from the Kinase Knowledgebase extract (Sharma et al. 2016).
